Data on three compounds can be found in US20110105420A1, “AMINOSUGAR COMPOUND AND PROCESS FOR PRODUCTION THEREOF” (Astellas Pharma Inc., priority 2008, published 2011).

The structures appear in SMILES notation.

Data set [1] can be described thus: Solubility (physicochemical properties).
The target in data set [2] is T1, human pancreatic α-amylase (Homo sapiens, UniProt P04746).
T1 construct: The solutions of α-amylases from human saliva and pancreas were prepared from the enzymes purchased from Sigma-Aldrich Co; purchased Sigma-Aldrich Co; host or cells: human pancreas
T1 sequence (P04746 16-511): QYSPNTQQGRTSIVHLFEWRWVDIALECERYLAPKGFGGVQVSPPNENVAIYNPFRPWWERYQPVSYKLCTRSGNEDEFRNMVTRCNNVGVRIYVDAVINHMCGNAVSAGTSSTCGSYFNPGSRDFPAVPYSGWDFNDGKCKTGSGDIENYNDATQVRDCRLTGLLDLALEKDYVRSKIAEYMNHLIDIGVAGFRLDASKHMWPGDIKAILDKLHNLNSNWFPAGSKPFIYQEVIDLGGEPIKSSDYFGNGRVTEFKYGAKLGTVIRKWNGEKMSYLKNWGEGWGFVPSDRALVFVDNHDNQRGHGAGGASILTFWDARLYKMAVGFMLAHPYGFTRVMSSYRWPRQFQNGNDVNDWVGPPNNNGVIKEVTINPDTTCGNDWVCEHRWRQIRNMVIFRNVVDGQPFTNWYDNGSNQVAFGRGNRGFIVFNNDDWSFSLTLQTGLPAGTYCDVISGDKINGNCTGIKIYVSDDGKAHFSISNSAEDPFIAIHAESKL
The experiment in a line: α-amylase inhibitory activity (starch-iodine absorbance). In kind it is biochemical. The note with it: enzyme from Sigma-Aldrich, starch substrate, 37° C., pH=7.0; read-out: inhibitory activity (IC50 value) against the human pancreatic α-amylase. Here is the method:
(§1) The solutions of pancreatic α-amylases of mouse, rat, dog and monkey were prepared from the pancreases of an ICR mouse (male, 8 weeks old, purchased from SLC Japan, Inc.), an SD rat (male, 8 weeks old, purchased from Charles River Laboratories Japan, Inc.), a beagle dog (male, 35 months old, purchased from Narc Corp.), and a cynomolgus monkey (male, 10 years old, purchased from CLEA Japan, Inc.). The solutions of α-amylases from human saliva and pancreas were prepared from the enzymes purchased from Sigma-Aldrich Co. These α-amylase solutions were all diluted to 800 U/mL using an assay buffer (48 mM NaCl, 5.4 mM KCl, 28 mM Na2HPO4, 43 mM NaH2PO4, 35 mM mannitol, pH=7.0). The various α-amylase solutions (20 U, 25 μL) and the compounds dissolved in the assay buffer (25 μL) were added to a 96-well microplate, and the microplate was incubated at 37° C. for 10 minutes. Subsequently, a starch solution (5 mg/mL, 50 μL) was added thereto, and the microplate was incubated at 37° C. for 10 minutes. A 0.33 M perchloric acid solution (50 μL) was added to the microplate to terminate the enzymatic reaction, and then a 0.01 M iodine solution (50 μL) was added thereto to color the solutions. The absorbance (660 nm) of each of the solutions was measured. The concentration of the compound inhibiting 50% of the α-amylase activity was calculated as the IC50 value.

A further data set concerns the target T2, human saliva α-amylase (Homo sapiens, UniProt P0DUB6).
T2 construct: The solutions of α-amylases from human saliva and pancreas were prepared from the enzymes purchased from Sigma-Aldrich Co; purchased Sigma-Aldrich Co; host or cells: human saliva
T2 sequence (P0DUB6 16-511): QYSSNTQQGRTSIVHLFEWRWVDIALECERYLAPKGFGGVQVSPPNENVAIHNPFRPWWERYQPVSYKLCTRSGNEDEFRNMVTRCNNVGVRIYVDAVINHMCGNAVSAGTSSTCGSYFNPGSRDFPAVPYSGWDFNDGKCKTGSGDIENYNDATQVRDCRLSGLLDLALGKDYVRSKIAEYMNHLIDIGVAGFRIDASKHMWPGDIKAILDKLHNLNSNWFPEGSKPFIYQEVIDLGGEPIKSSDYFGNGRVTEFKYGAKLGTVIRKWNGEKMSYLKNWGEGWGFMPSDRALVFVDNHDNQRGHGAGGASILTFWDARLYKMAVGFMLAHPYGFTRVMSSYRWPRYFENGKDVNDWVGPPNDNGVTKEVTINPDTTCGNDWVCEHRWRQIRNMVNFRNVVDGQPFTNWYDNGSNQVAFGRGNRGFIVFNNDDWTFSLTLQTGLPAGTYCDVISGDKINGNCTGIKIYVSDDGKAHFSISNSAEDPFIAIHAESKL
Described as above. The data set is classed as biochemical. The note with it: enzyme from Sigma-Aldrich, starch substrate, 37° C., pH=7.0; read-out: inhibitory activity (IC50 value) against the human saliva α-amylase. Here is the method: as §1

A further data set has as its target dog pancreatic α-amylase. Described as above. The data set is classed as biochemical. The note with it: beagle dog pancreas enzyme, starch substrate, 37° C., pH=7.0; read-out: inhibitory activity (IC50 value) against the dog pancreatic α-amylase. Here is the method: as §1
The target of data set [3] is monkey pancreatic α-amylase. The description is as above. In kind it is biochemical. The note with it: cynomolgus monkey pancreas enzyme, starch substrate, 37° C., pH=7.0; read-out: inhibitory activity (IC50 value) against the monkey pancreatic α-amylase. Here is the method: as §1
The target of a further data set is T3, rat pancreatic α-amylase (Rattus norvegicus, UniProt P00689).
T3 construct: The solutions of pancreatic α-amylases of mouse, rat, dog and monkey were prepared from the pancreases; from tissue; host or cells: pancreas of SD rat (male, 8 weeks old, Charles River Laboratories Japan)
T3 sequence (P00689 16-508): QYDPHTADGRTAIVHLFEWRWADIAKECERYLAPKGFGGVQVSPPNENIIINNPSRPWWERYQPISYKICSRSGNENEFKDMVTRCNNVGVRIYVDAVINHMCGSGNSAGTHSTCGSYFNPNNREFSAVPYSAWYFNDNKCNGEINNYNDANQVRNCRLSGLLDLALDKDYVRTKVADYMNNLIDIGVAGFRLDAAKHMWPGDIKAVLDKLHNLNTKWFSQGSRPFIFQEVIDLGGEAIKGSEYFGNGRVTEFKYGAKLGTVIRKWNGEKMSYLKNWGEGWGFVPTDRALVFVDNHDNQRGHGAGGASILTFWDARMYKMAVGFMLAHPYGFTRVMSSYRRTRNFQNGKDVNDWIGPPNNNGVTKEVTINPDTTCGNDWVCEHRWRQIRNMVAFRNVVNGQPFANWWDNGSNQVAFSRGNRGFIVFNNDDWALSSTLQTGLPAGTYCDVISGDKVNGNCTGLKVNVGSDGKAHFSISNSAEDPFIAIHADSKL
The description is as above. The data set is classed as biochemical. The note with it: read-out: inhibitory activity (IC50 value) against the rat pancreatic α-amylase; SD rat pancreas enzyme, starch substrate, 37° C., pH=7.0. Here is the method:
as §1

For data set [4], the target named is T4, mouse pancreatic α-amylase (Mus musculus, UniProt P00688).
T4 construct: prepared from the pancreases of an ICR mouse; from tissue; host or cells: pancreas of ICR mouse (male, 8 weeks old, SLC Japan)
T4 sequence (P00688 16-508): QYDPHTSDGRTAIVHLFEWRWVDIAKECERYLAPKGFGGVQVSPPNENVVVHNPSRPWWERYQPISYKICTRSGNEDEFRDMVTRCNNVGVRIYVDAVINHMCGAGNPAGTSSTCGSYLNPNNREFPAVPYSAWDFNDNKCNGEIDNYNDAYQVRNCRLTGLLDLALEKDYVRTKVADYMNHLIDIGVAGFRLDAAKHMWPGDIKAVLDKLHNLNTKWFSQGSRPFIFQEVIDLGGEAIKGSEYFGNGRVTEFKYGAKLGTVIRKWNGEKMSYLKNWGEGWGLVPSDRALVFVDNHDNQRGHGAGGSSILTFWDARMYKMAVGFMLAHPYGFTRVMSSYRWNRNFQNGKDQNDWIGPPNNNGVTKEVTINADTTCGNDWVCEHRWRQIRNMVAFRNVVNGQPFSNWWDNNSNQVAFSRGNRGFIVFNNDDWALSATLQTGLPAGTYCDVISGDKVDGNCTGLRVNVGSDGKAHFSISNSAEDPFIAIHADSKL
The data set is described as above. The data set is classed as biochemical. The note with it: read-out: inhibitory activity (IC50 value) against the mouse pancreatic α-amylase; ICR mouse pancreas enzyme, starch substrate, 37° C., pH=7.0. Here is the method: as §1

The subject of a further data set is Male ICR (normal) mice. The experiment in a line: oral activity under a load of carbohydrates (blood glucose and plasma insulin). In kind it is in vivo, mouse. Here is the method:
Male ICR (normal) mice (6 weeks old, purchased from SLC Japan, Inc.) were used for the animal. The compound was prepared into a solution using a 0.5% methylcellulose solution. Blood was collected from a mouse which had been fasted overnight, for the measurement of the blood glucose level and the blood plasma insulin level, and the mouse was orally administered with a solvent or the compound A (0.3, 1, 3, 10 mg/kg), immediately followed by oral administration of a carbohydrate solution (75 mg/mL starch, 25 mg/mL sucrose, 20 mL/kg). Subsequently, blood was collected 0.25, 0.5 and 1 hour after the oral administration, for the measurement of the blood plasma insulin level, and blood was collected 0.5, 1 and 2 hours after the oral administration, for the measurement of the blood glucose level.
The blood glucose level was measured by using Glucose CH-test Wako reagent (Wako Pure Chemical Industry, Ltd.), and the blood plasma insulin concentration was measured by using a Mouse Insulin ELISA Kit (Shibayagi Co., Ltd.). The test results are indicated in the average ±standard error.
The area-under-curve (AUC) of the blood glucose level-time curve was calculated from the blood glucose level for the time period up to 2 hours from the administration of the compound, and the AUC of the plasma insulin level-time curve was calculated from the blood plasma insulin level for the time period up to 1 hour from the administration of the compound. A statistical analysis was performed between the solvent-administered group and the compound A-administered group by using Dunnett's multiple range test, and a critical rate of less than 5% was defined as significant.

A word on the IC50: it is the point on the concentration scale where inhibition reaches its midpoint.

For the compound `CC1OC(OC2C(CO)OC(OC3C(CO)=CC(NC4C(C)OC(OC5C(CO)OC(OC6C(CO)=CC(NC7C(C)OC(OC8C(CO)OC(OC9C(CO)=CC(NC%10C(C)OC(OC%11C(CO)OC(OC%12C(CO)OC(OC%13C(CO)OC(OC%14OC(CO)C(O)C(O)C%14O)C(O)C%13O)C(O)C%12O)C(O)C%11O)C(O)C%10O)C(O)C9O)C(O)C8O)C(O)C7O)C(O)C6O)C(O)C5O)C(O)C4O)C(O)C3O)C(O)C2O)C(O)C(O)C1NC1C=C(CO)C(O)C(O)C1O` (stereo not drawn) [compound A], the “Solubility in acetone, MeOH, EtOH and MeCN” value (“Solubility in acetone, MeOH” below) in data set [1] is recorded as “slightly soluble”. Besides, the “Solubility in water, DMF and DMSO” value in data set [1] is “highly soluble”. The IC50 in data set [2] worked out at 2.02 nM; at human saliva α-amylase, 2.2 nM; at dog pancreatic α-amylase, 2.06 nM; in data set [3] it was 2.14 nM; on rat pancreatic α-amylase, 2.01 nM; in data set [4] it was 1.9 nM. Also, in the data set with Male ICR (normal) mice (oral administration 0.3 to 10 mg/kg, fasted ICR mice, carbohydrate load (starch + sucrose), glucose up to 2 hours, FIG. 7), the “blood glucose elevation suppressive action” value is recorded as “dose-dependent blood glucose elevation suppressive action was recognized”. The “plasma insulin level lowering action” value in the data set with Male ICR (normal) mice (oral administration 0.3 to 10 mg/kg, fasted ICR mice, carbohydrate load, insulin up to 1 hour, FIG. 8) was “dose-dependent, significant plasma insulin level lowering action was also recognized”. Besides, the “dose at which the blood glucose elevation suppressive action was significant” value with Male ICR (normal) mice (oral, ICR mice, carbohydrate load, Dunnett's test vs solvent group) was no less than 1 mg/kg.

`CC1OC(OC2C(CO)OC(OC3C(CO)=CC(NC4C(C)OC(OC5C(CO)OC(OC6C(CO)=CC(NC7C(C)OC(OC8C(CO)OC(OC9C(CO)=CC(NC%10C(C)OC(OC%11C(CO)OC(OC%12C(CO)=CC(NC%13C(C)OC(OC%14C(CO)OC(OC%15C(CO)OC(OC%16C(CO)OC(OC%17OC(CO)C(O)C(O)C%17O)C(O)C%16O)C(O)C%15O)C(O)C%14O)C(O)C%13O)C(O)C%12O)C(O)C%11O)C(O)C%10O)C(O)C9O)C(O)C8O)C(O)C7O)C(O)C6O)C(O)C5O)C(O)C4O)C(O)C3O)C(O)C2O)C(O)C(O)C1NC1C=C(CO)C(O)C(O)C1O` (stereo not drawn) [compound B]: the “Solubility in acetone, MeOH” value in data set [1] was “slightly soluble”. Besides, the “Solubility in water, DMF and DMSO” value in data set [1] is “highly soluble”. Also, the IC50 in data set [2] was determined as 2.11 nM; on human saliva α-amylase, 1.87 nM; on dog pancreatic α-amylase it was 2.38 nM; in data set [3] it was 1.9 nM; at rat pancreatic α-amylase, 2.12 nM; in data set [4], 2.06 nM.

With `CC1OC(OC2C(CO)OC(OC3C(CO)=CC(NC4C(C)OC(OC5C(CO)OC(OC6C(CO)=CC(NC7C(C)OC(OC8C(CO)OC(OC9C(CO)=CC(NC%10C(C)OC(OC%11C(CO)OC(OC%12C(CO)=CC(NC%13C(C)OC(OC%14C(CO)OC(OC%15C(CO)=CC(NC%16C(C)OC(OC%17C(CO)OC(OC%18C(CO)OC(OC%19C(CO)OC(OC%20OC(CO)C(O)C(O)C%20O)C(O)C%19O)C(O)C%18O)C(O)C%17O)C(O)C%16O)C(O)C%15O)C(O)C%14O)C(O)C%13O)C(O)C%12O)C(O)C%11O)C(O)C%10O)C(O)C9O)C(O)C8O)C(O)C7O)C(O)C6O)C(O)C5O)C(O)C4O)C(O)C3O)C(O)C2O)C(O)C(O)C1NC1C=C(CO)C(O)C(O)C1O` (stereo not drawn) [compound C], the “Solubility in acetone, MeOH” value in data set [1] was “slightly soluble”. The “Solubility in water, DMF and DMSO” value in data set [1] was “highly soluble”. The half-inhibitory concentration (IC50) in data set [2] is 2.21 nM; on human saliva α-amylase, 1.99 nM; at dog pancreatic α-amylase, 2.07 nM; in data set [3] it was 2.02 nM; on rat pancreatic α-amylase, 1.95 nM; in data set [4] it was 1.73 nM.
